Data reported in ChEMBL document CHEMBL5620360, “Design, synthesis and biological evaluation of 4-(4-aminophenoxy)picolinamide derivatives as potential antitumor agents” (Eur J Med Chem, 2023).
Calls of active or inactive are those of the source. The rule behind the calls is not given here.

Key:
A549 [1] = test: Induction of apoptosis in human A549 cells assessed as viable cells at 5 uM measured after 24 hrs by AnnexinV-FITC/PI staining based flow cytometry (reference value: 93.25%); assay type: functional; details: read-out: Activity
A549 [2] = test: Induction of morphological changes in human A549 cells assessed as reduction in cell number at 1.1 uM measured after 12 hrs by acridine orange staining based fluorescence microscopy; assay type: functional
[3] = target: Dual specificity mitogen-activated protein kinase kinase 1 (Homo sapiens, UniProt Q02750); test: Inhibition of MEK1 (unknown origin)
Dual specificity mitogen-activated protein kinase kinase 1, sequence (Q02750 whole entry): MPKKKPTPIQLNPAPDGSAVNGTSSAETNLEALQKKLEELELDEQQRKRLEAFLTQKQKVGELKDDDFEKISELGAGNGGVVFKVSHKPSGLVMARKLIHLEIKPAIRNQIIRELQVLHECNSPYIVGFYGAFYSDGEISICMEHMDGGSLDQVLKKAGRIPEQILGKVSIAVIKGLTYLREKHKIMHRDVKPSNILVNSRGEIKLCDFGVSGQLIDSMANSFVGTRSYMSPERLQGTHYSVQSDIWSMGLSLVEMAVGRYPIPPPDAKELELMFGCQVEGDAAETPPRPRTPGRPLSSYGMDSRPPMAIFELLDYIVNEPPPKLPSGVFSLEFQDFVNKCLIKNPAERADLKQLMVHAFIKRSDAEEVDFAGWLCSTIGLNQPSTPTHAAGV

A549 [4] = test: Induction of apoptosis in human A549 cells assessed as necrotic cells at 10 uM measured after 24 hrs by AnnexinV-FITC/PI staining based flow cytometry (reference value: 4.01%); assay type: functional
A549 [5] = test: Induction of cell cycle arrest in human A549 cells assessed as accumulation of cells at S phase at 10 uM incubated for 24 hrs by propidium iodide staining based flow cytometry (reference value: 38.18%); assay type: functional
[6] = Half life in Sprague-Dawley rat at 10 mg/kg, po by LC-MS/MS analysis; assay type: ADME, organism-based; details: in vivo
[7] = Cmax in Sprague-Dawley rat at 10 mg/kg, po by LC-MS/MS analysis; assay type: ADME, organism-based; details: in vivo
HeLa = test: Antiproliferative activity against human HeLa cells assessed as reduction in cell viability incubated for 72 hrs by MTT assay; assay type: functional, cell-based; details: Homo sapiens, HeLa, 72 h; read-out: IC50
A549 [8] = test: Induction of apoptosis in human A549 cells assessed as late apoptotic cells at 5 uM measured after 24 hrs by AnnexinV-FITC/PI staining based flow cytometry (reference value: 1.47%); assay type: functional
A549 [9] = test: Induction of cell cycle arrest in human A549 cells assessed as accumulation of cells at G1 phase at […] incubated for 24 hrs by propidium iodide staining based flow cytometry (reference value: 54.46%); assay type: functional; details: dose 2.5 µM
A549 [10] = test: Induction of cell cycle arrest in human A549 cells assessed as accumulation of cells at G1 phase at 10 uM incubated for 24 hrs by propidium iodide staining based flow cytometry (reference value: 54.46%); assay type: functional
A549 [11] = test: Induction of cell cycle arrest in human A549 cells assessed as accumulation of cells at G1 phase at 5 uM incubated for 24 hrs by propidium iodide staining based flow cytometry (reference value: 54.46%); assay type: functional
A549 [12] = test: Potency index, ratio of cabozantinib IC50 to test compound IC50 for antiproliferative activity against human A549 cells; assay type: functional
A549 [13] = test: Induction of apoptosis in human A549 cells assessed as late apoptotic cells at 10 uM measured after 24 hrs by AnnexinV-FITC/PI staining based flow cytometry (reference value: 1.47%); assay type: functional
[14] = target: Hepatocyte growth factor receptor (Homo sapiens, UniProt P08581); test: Inhibition of c-Met (unknown origin)
Hepatocyte growth factor receptor, sequence (P08581 whole entry): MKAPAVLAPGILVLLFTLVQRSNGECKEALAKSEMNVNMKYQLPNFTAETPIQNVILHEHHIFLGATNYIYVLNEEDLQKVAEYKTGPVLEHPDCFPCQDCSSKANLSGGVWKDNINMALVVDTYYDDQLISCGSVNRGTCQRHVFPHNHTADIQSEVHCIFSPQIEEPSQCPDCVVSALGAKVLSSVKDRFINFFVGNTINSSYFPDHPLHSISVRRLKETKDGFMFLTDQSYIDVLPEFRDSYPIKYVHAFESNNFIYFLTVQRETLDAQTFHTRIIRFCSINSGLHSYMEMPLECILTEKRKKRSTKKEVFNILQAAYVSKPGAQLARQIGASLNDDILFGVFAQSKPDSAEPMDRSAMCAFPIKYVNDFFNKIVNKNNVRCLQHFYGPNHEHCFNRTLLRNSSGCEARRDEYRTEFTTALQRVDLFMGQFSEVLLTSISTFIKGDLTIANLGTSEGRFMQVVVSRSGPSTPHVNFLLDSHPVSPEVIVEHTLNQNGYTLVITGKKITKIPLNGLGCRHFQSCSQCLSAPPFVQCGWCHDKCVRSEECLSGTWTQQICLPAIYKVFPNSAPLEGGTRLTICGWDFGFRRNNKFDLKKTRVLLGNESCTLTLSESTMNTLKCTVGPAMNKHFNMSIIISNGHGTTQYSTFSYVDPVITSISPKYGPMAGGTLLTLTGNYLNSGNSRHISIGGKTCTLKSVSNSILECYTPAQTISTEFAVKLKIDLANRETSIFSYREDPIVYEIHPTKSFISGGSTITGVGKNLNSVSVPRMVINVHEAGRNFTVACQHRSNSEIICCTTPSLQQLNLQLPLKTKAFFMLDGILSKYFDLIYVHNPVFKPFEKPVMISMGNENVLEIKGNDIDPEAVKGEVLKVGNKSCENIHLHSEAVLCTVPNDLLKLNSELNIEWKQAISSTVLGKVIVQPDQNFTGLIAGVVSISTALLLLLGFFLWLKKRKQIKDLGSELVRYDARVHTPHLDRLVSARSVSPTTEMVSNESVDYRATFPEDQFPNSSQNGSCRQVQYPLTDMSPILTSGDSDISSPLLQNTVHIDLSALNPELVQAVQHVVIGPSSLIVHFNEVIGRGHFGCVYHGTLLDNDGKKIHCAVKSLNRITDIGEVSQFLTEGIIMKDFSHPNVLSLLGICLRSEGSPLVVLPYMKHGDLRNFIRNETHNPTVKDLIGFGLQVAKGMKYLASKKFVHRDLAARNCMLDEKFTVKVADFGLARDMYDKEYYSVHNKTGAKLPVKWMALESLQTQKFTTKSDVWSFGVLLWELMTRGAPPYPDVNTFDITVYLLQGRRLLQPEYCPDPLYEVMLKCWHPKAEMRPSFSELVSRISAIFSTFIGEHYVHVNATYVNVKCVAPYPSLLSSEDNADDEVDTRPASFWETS

- IC50 [3]: > 100000 nM
- half-life [6]: 4.5 h
- Cmax [7]: 390 ng/mL
- IC50 (HeLa): 820 nM
- IC50 [14]: 46.5 nM
Structure (SMILES): O=C(NCCCN1CCOCC1)c1cc(Oc2ccc(NC(=O)c3cn(-c4ccc(F)c(Cl)c4)c4ncccc4c3=O)cc2F)ccn1
- viability at 5 µM (A549 [1]): 85.2%
- Activity (A549 [2]): Active
- Activity (A549 [4]): 11.9%
- Activity (A549 [5]): 28.68%
- Activity (A549 [8]): 4.29%
- Activity (A549 [9]): 55.95%
- Activity (A549 [10]): 58.67%
- Activity (A549 [11]): 57.38%
- Ratio IC50 (A549 [12]): 2.4
- Activity (A549 [13]): 8.25%
